We go through 2 molecules from patent US20070219220A1, “Pyrazolopyrimidinethione Derivatives, Salts and Solvates Thereof, Preparation Methods and Use Thereof” (priority 2003, published 2007).

Data set [1] concerns mice with testis removed. The data set can be described thus: Sexual function (back climbing) of testis-removed mice (Example 10). The class given is in vivo, KM mice. The conditions noted are these: oral 80 mg/kg. The text has this: Methods: Forty healthy KM male mice with the body weight ranging from 28-32 g and forty healthy KM female mice with body weight ranging from 24-28 g were used. Each male mouse was anesthetized with sodium pentobarbital, and the testes were squeezed into the scrotum. After sterilization, the scrotum was dissected with an operating knife. The testes and epididymis were respectively taken out, and then ligated. The wound were sutured and each of the mice was administrated with 100,000 units of penicillin for three consecutive days. After being bred for one week, the mice were used for the tests. The animals may be employed repeatedly and the interval between any two tests was 72 hours. To the mice, the following compounds were orally administered: compound (1), compound (2), compound (3), and compound (4), each at the dose of 80 mg/kg and 40 mg/kg, respectively. The positive control agent was Sildenafil, at the dose of 80 mg/kg. The control group was given with 1% of sodium carboxymethyl cellulose. At 30 min after the administration, the male mice who had taken the above agents were put into the cages of female mice, with the male-to-female rate of 1:1. There were three males and three females in each cage. The times of back climbing on the female mice performed by the male mice, and the percentage of occurrence were observed within 2 hours after the administration.

The conditions of data set [2]: cited from earlier work.
In data set [3] the test system is rats with testis removed. The data set can be described thus: Duration of penile erection in rats with testis removed (Example 8). The class given is in vivo, wistar rats. The conditions noted are these: oral 50 mg/kg.
The test system of data set [4] is healthy mice. The conditions noted are these: within two hours, cited from earlier work.
Data set [5] concerns anesthetized dogs. The data set can be described thus: Blood pressure, heart rate and respiration of anesthetized dogs (Example 11). It counts as in vivo. To be noted: Sildenafil 40 mg/kg; mainly diastolic pressure. On the procedure: Methods: eight healthy male dogs with the body weight ranging from 12-15 kg were used. The dogs were anesthetized with 30 mg/kg of sodium pentobarbital. The femoral artery was dissected and inserted with a blood pressure transducer to record the blood pressure. The limbs were pierced with electrodes for recording the electrocardiogram. The respiration belt was wrapped around their chest and the respiration rate was recorded. The apparatus used was RM-6000 Polygraph system (NIHON KOHDEN, Japan). The changes in the arterial blood pressure, the heart rate, and the respiration were observed after the test compound was introduced into the stomach of the anesthetized dogs via 14# catheter.

The subject of data set [6] is rats with testis removed. The data set can be described thus: Penile erection caused by stimulating electric current in rats with testes removed (Example 7). The conditions noted are these: oral 50 mg/kg; stimulation 35 min after administration. The class given is in vivo, wistar rats. The text has this:
Methods: Forty healthy adult male wistar rats were used in the study, with the body weight ranging from 230 g to 250 g. The rats were anesthetized with sodium pentobarbital, and their testes were squeezed into the scrotum. After sterilization, the scrotum was dissected with an operation knife. The testes and epididymis were taken out respectively and then ligated. The wound were sutured and 100,000 unit of penicillin was administrated to each rat for three consecutive days. After breeding for one week, the rats were used for the tests. The animals may be used repeatedly and the interval between any two of the tests was one week. […] Sildenafil at the dose of 50 mg/kg was used as the positive control. The control group is (1% sodium carboxymethyl cellulose). In 35 min after the administration, the penis of the rats was stimulated with SEN-3201 stimulator (NIHON KOHDEN, Japan), with the following parameters: the stimulating voltage of 10V, the time interval (T1) of 250 msec, the deferment time (T2) of 10 msec, the duration (T3) of 500 μsec, and the stimulation rank (n) of 25. At the same time, the latent period (sec) of the penile erection and the penile swelling time (min) were recorded with a three-channel stop-watch.

The test system of data set [7] is anesthetized rats. The data set can be described thus: Blood pressure and heart rate of anesthetized rats (Example 12). It counts as in vivo, wistar rats. The protocol: Forty male wistar rats with the body weight ranging from 220-240 g were used in the study. Pharmaceuticals: compound (2) and Sildenafil, which were ground and then suspended with 1% of sodium carboxymethyl cellulose. Apparatus: RM-6000 eight-graph system (NIHON KOHDEN, Japan). The doses for administration and the division of the groups: solvent control group (abbreviated as the control group), 20 mg/kg of compound (2), 40 mg/kg of compound (2), 80 mg/kg of compound (2), and 50 mg/kg of Sildenafil. The administration route is through dodecadactylon. Methods: the male wistar rats were taken out and anesthetized with 35 mg/kg of sodium pentobarbital by injecting into the abdominal cavity, on the basis of their body weight. The rats were fixed on the operation table and were performed with the dissection operation of right carotid artery. The catheter with an external diameter of 1 mm was inserted into the right carotid artery. The blood pressure was measured and the electrodes positioned on the skin of the four limbs were used to record the electrocardiogram limb lead II. The catheter with an external diameter of 2 mm was inserted into the dodecadactylon via incision of the epigastric region, for the administration of the pharmaceuticals. RM-6000 eight-graph system (NIHON KOHDEN, Japan) was employed to record. Observation time: the value before administration, the values at 15, 30, 60, 120 and 180 min after the administration.

Data set [8] concerns dog. The conditions noted are these: cited from earlier work.
The mark [9] stands for this setting: prior-art filings, background section.
The mark [10] stands for this setting: 50 mg/kg through dodecadactylon, at 15 min after administration.
Where [11] appears, read: 50 mg/kg through dodecadactylon, at 30 min after administration.
[12] abbreviates: 50 mg/kg through dodecadactylon, at 60 min after administration.
The mark [13] stands for this setting: 50 mg/kg through dodecadactylon, at 120 min after administration.
[14] abbreviates: 50 mg/kg through dodecadactylon, value before administration.

Like-named read-outs stand apart in the source and are kept apart here. Marks after values point to notes of the source that are not given here.

For the molecule `CCCc1nn(C)c2c(=O)[nH]c(-c3cc(S(=O)(=O)N4CCN(C)CC4)ccc3OCC)nc12` [Sildenafil, reference compound], the Incidence in data set [1] (back climbing within 2 hours after administration) is listed as 70%. Also, the “Number of the animals who performed back climbing” value in data set [1] (within 2 hours after administration, 10 male mice) is reported as 6*. In addition, the LD50 (in general, the dose at which mortality reaches 50%) in data set [2] (as reported in Chinese Journal of Clinical Pharmacology and Therapeutics (1999, 4(3): 237-240)) is on record as 635 mg/kg; in data set [2] (setting [9]), 635 mg/kg. Further, the “how long the penile swelling effect lasts after administration” value in data set [3] is listed as “about 1 hour”. In addition, the Penile swelling time stood at 1067.0 ± 204.5 s in data set [3] (at 1 h after administration); 44.0 ± 11.3 s in data set [3] (at 3 h after administration); 38.8 ± 5.6 s in data set [3] (at 6 h after administration); 61.0 ± 8.7 s in data set [3] (at 24 h after administration); 62.8 ± 7.7 s in data set [3] (value before administration). In data set [3] (at 3 hr after the administration), the “penile swelling time compared with control group (in words)” value is given as “shorter than that of the control group”. Besides, in data set [4] (oral 50 mg/kg), the “occurrences of back climbing” value is recorded as 50%. Also, the “times of back climbing on the female mice performed by the male mice” value in data set [4] (oral 50 mg/kg) is given as 19. Moreover, the “blood pressure (in words)” value in data set [5] is given as “apparent effect of decreasing the blood pressure”; in data set [7] (50 mg/kg through dodecadactylon), “began to decrease at 15 min after the administration”. In addition, the Latent period in data set [6] was 28.9 ± 1.7 s. The molecule also displayed a Swelling time in data set [6] of 2272.5 ± 326.2 s. The Heart rate in data set [7] (setting [10]) is listed as 445 ± 29.7 times/min; in data set [7] (setting [11]) it was 444 ± 29.6 times/min; in data set [7] (setting [12]) it was 437 ± 22.8 times/min; in data set [7] (setting [13]) it was 439 ± 22.6 times/min; in data set [7] (50 mg/kg through dodecadactylon, before administration), 429 ± 26.1 times/min. The Systolic pressure in data set [7] (setting [10]) is listed as 90 ± 29.7 mmHg; in data set [7] (setting [11]) it was 90 ± 29.6 mmHg; in data set [7] (setting [12]) it was 88 ± 22.9 mmHg; in data set [7] (setting [13]) it was 93 ± 22.6 mmHg; in data set [7] (setting [14]) it was 120 ± 10.6 mmHg. For the same molecule, the diastolic pressure in data set [7] (setting [10]) was 68 ± 29.7 mmHg; in data set [7] (setting [11]), 70 ± 29.6 mmHg; in data set [7] (setting [12]), 68 ± 22.9 mmHg; in data set [7] (setting [13]) it was 71 ± 22.6 mmHg; in data set [7] (setting [14]) it was 98 ± 16.0 mmHg. Moreover, in data set [7] (50 mg/kg, at 15 and 30 minutes after administration), the “effect on the heart rate (in words)” value is “increasing the heart rate”.
Consider `CCCc1nn(CC)c2c(=O)[nH]c(-c3cc(S(=O)(=O)N4C[C@@H](C)N[C@@H](C)C4)ccc3OCC)nc12` [5-[2-ethoxy-5-(cis-3,5-dimethylpiperazine-1-sulfonyl)phenyl]-1-ethyl-3-n-propyl-1,6-dihydro-7H-pyrazolopyrimidin-7-one], for which, in data set [2] (setting [9]), the LD50 entry is given as “greater than 2000 mg/kg”. In addition, the “occurrences of back climbing” value is listed as 56.6% in data set [4] (oral 15 mg/kg) and 62.5% in data set [4] (oral 30 mg/kg). Also, the “times of back climbing on the female mice performed by the male mice” value in data set [4] (oral 15 mg/kg) is listed as 43; in data set [4] (oral 30 mg/kg), 53. Also, the “diastolic pressure and heart rate (in words)” value in data set [8] is “dramatically decrease diastolic pressure and increase heart rate”.
